# Laboratory results taken from patent US11572373B2, “Maytansinoid-based drug delivery systems” (LADRX CORPORATION, priority 2017, dated 2023).
# Marks after values point to notes of the source that are not given here.
# Assay: Stability and release kinetics of maytansinoid-HSA conjugates in buffer solution at pH 4.0 and pH 7.4
# Format: physicochemical
# Conditions: maytansinoid-HSA conjugate, PBS pH 7.4, 37° C.
# Description: For preparing HSA conjugates of albumin-binding maytansinoids, HSA (200 μM: 361.8 μL, 1078 μM free Cys34; 100 μM: 180.9 μL, 1078 μM free Cys34) was diluted with PBS buffer (4 mM sodium phosphate, 150 mM NaCl, pH 7.4) (200 μM: 678.2 μL; 100 μM: 859.1 μL) and DMSO (200 μM: 130.0 μL; 100 μM: 195.0 μL) and incubated in a heating block at 37° C. for 30 minutes. The albumin-binding maytansinoid was added as a 2 mM stock solution in DMSO (200 μM: 130.0 μL; 100 μM: 65.0 μL) to the preincubated HSA sample to produce a 200 μM or 100 μM solution of maytansinoid-prodrug and 300 μM or 150 μM of free Cys34. The mixture having a pH of 7.4 was allowed to react for 10 min at 37° C. and was then analyzed hourly for 24 hours by RP-HPLC (Phenomenex Aeris WP XB-C18, 3.6 μm, 250×4.6 mm).
# For studying the release kinetics at pH 4.0 the mixture was acidified with a mixture of 50 mM sodium acetate buffer pH 3.0 (200 μM: 119.3 μL; 100 μM: 125.2 μL) and 1 M HCl (200 μM: 12.7 μL; 100 μM: 6.8 μL) to reach pH 4.0. The mixture was subsequently analyzed hourly for 24 hours by RP-HPLC (Phenomenex Aeris WP XB-C18, 3.6 μm, 250×4.6 mm).
# The following RP-HPLC conditions were used: Phenomenex Aeris WP XB-C18 3.6 μm, 250×4.6 mm; eluent A (100% 20 mM Tris buffer pH 8.0) and eluent B (90:10, MeCN: water) eluting with a gradient of eluent B (25% 0-0.5 min, 25-35% 0.5-2.5 min, 35-85% 2.5-16 min, 85-95% 16-17 min, 95% 17-20 min, 95-25% 20-25 min, 25% 25-30 min, flow rate 1.0 mL/min). Column oven temperature 37° C.; autosampler temperature 37° C.; 20 μL of injection volume.
# To quantify the percentage of free drug released, standard curves of the free maytansinoids were prepared at different concentrations (200 μM, 100 μM, 50 μM, 25 μM and 12.5 μM). The area under the curve (AUC) was determined at 250 nm.
smiles,measurement,setting,value
COc1cc2cc(c1Cl)N(C)C(=O)C[C@H](OC(=O)COc1cccc(/C(C)=N/NC(=O)c3ccc(NC(=O)CCCCCN4C(=O)C=CC4=O)cc3S(=O)(=O)O)c1)[C@]1(C)O[C@H]1[C@H](C)[C@@H]1C[C@@](O)(NC(=O)O1)[C@H](OC)/C=C/C=C(\C)C2 [Compound 31],free maytansinoid after 24 h at pH 7.4,measured at 100 μM,3.7%**
same,free maytansinoid after 24 h at pH 7.4,measured at 200 μM,4.0%*
